# Columns and labels:
# [1] = Cytotoxicity against HSV-1 (herpes simplex virus); type: functional; conditions: Human alphaherpesvirus 1
# [2] = tested on: Human immunodeficiency virus 1; test: Antiviral activity against HIV-1 (human immunodeficiency virus type 1); type: functional, organism-based
# [3] = Cytotoxicity against HIV-1 (human immunodeficiency virus type 1); type: functional; conditions: Human immunodeficiency virus 1
# [4] = tested on: Human alphaherpesvirus 1; test: Antiviral activity against HSV-1 (herpes simplex virus); type: functional, organism-based
SMILES,CC50 [1],EC50 [2],CC50 [3],EC50 [4]
Nc1nc2c(ncn2COCCO)c(=O)[nH]1 [ACYCLOVIR],> 100 µM,–,–,–
C=C[C@]1(CO)O[C@@H](n2cc(C)c(=O)[nH]c2=O)C[C@@H]1O,> 100 µM,6.1 µM,> 100 µM,1.9 µM
Cc1cn([C@H]2C[C@H](O)[C@](CO)(CCO)O2)c(=O)[nH]c1=O,> 100 µM,> 4.7 µM,4.7 µM,> 100 µM
Cc1cn([C@H]2C[C@@H]3OCC[C@]3(CO)O2)c(=O)[nH]c1=O,> 100 µM,> 100 µM,> 100 µM,> 100 µM
CC[C@]1(CO)O[C@@H](n2cc(C)c(=O)[nH]c2=O)C[C@@H]1O,> 100 µM,16.1 µM,> 100 µM,7.4 µM
C#C[C@]1(CO)O[C@@H](n2cc(C)c(=O)[nH]c2=O)C[C@@H]1O,> 100 µM,0.83 µM,> 100 µM,6.8 µM
Cc1cn([C@H]2C[C@H](N=[N+]=[N-])[C@@H](CO)O2)c(=O)[nH]c1=O [ZIDOVUDINE],–,0.0017 µM,16.5 µM,–
